Measurements: patent US20130323753A1, “METHODS AND KITS FOR IDENTIFICATION OF ANTI-EXCITOTOXIC COMPOUNDS” (RUTGERS, THE STATE UNIVERSITY OF NEW JERSEY, priority 2007, published 2013)
Entries after “also recorded” stand apart in the source; their conditions may differ.

Experiments:
spinal cord injury = details: pre-treatment and concurrent treatment with UA; cited from earlier work
[1] = system: mouse spinal cord neuron cultures; details: mouse spinal cord neuron cultures treated with UA; cited from earlier work
[2] = system: pure spinal cord neuron cultures; assay: Sin-1 (peroxynitrite donor) toxicity in pure spinal cord neuron cultures; assay type: cell-based, rat; details: Sin-1 250 μM 1-hr
Experimental: (§1) To grow pure spinal neuron cultures, SCM was changed to Neurobasal medium (NB; Neurobasal medium (Gibco) supplemented with B-27, penicillin, and streptomycin) at 24 hours after plating. After an additional 24 hours, cytosine arabinoside (Ara-C, 5 μM) was added to these cultures for 3 days after which the Ara-C containing media was changed to fresh NB media. Cells were treated 24 hours later.
THA was dissolved in PBS.
(§2) When cells were treated with glutamate, the medium was replaced with solutions of glutamate in Locke's buffer, with or without UA, for 1 hour at 37° C. In control cultures, the medium was replaced with Locke's buffer. After 1 hour, glutamate solutions were changed to SCM or NB and UA was added at the same concentration. In all cases, same amount of Locke's buffer was added to control as vehicle. When the cultures were treated with Sin-1, the drug was added directly to the medium with or without UA, and the same amount of PBS and Locke's buffer were added to control as vehicle. In all cases, cells were incubated for another 24 hours at 37° C. before being fixed or harvested.
Results were derived from 2 independent experiments (n=6). ***p<0.001 by parametric ANOVA followed by Bonferroni Multiple Comparisons Test.

[3] = at normal human levels; cited from earlier work
[4] = system: pure spinal cord neuron cultures; assay: Neuron survival (MAP-2+ count) in pure spinal cord neuron cultures, glutamate toxicity; assay type: cell-based, rat; details: for neuron loss: 1 hour
Experimental: as §1, §2
(§3) Cells were fixed with 4% paraformaldehyde for 30 minutes at room temperature. After washing with PBS, the cultures were incubated with anti-MAP-2 (1:500), anti-GFAP (1:1000), anti-CNPase (1:500), anti-vimentin (1:1000) or anti-CD11 (1:500) for 2 hours at room temperature. Positive cells were then visualized with Cy2 anti-mouse secondary antibodies.
(§4) For each well, pictures were taken for 10 random fields at a magnification of 100×. Cell number (as indicated by the appropriate immunostain) in each of the 10 pictures was counted by an experimenter blind to the condition. Cell numbers in control and treated groups were compared with one-way analysis of variance (ANOVA) using the Instat software program (Graph Pad).
To address this question, pure spinal cord neuron cultures were established. Twenty four hours after plating in SCM, SCM was changed to NB medium, which optimizes neuronal growth. Ara-C (5 μM) was added to the cultures after another 24 hours to eliminate the glial populations. The medium was changed after 3 days, and cells were treated 24 hours later. This procedure eliminated non-neuronal cell types in the cultures with only neurons surviving.
To determine the sensitivity of pure neuronal and mixed cultures to glutamate, pure spinal cord neuron cultures were established, and after 6 days, these cells were treated with glutamate for 1 hour. Cells were fixed after 24 hours and stained with anti-MAP-2 antibody. (A) Control cultures and cells treated with 2, 10, and 500 μM glutamate are illustrated. […] Results were derived from 3 independent experiments (n=7). ***p<0.001 by nonparametric ANOVA followed by Dunn's analysis comparing glutamate treated groups with control. Scale bar, 50 μm.
To examine whether UA can directly reduce glutamate toxicity in pure neuronal cultures, cells were treated with or without various concentrations of UA either concurrent with or at the termination of exposure to 10 μM glutamate. More specifically, six days after plating, pure spinal cord neuron cultures were treated with glutamate (10 or 500 μM) for 1 hour. UA (100 or 200 μM) was added with and after glutamate treatments. Cells were fixed after 24 hours and numbers of neurons that survived (MAP-2+) were counted. Results shown in FIG. 6 were derived from 2 independent experiments (n=6). ***p<0.001 by nonparametric ANOVA followed by Dunn's analysis for multiple comparisons comparing treated groups with control.

EAAT-2 = assay: Western blot of EAAT-2 protein in mixed spinal cord cultures; assay type: cell-based, rat; details: UA 100 μM 24 hours, glutamate, or glutamate and UA
Experimental: (§5) At DIV 7, control and treated mixed spinal cord cultures grown on 35 mm dishes were scraped and protein was harvested in TEEN (25 mM Tris-HCl, pH 7.4, 1 mM EDTA, 1 mM EGTA, 100 mM NaCl) supplemented with 1 mM phenylmethylsulfonyl fluoride (PMSF). Proteins were resolved on 10% SDS-polyacrylamide gels and transferred to PVDF membranes.
(§6) After blocking with 3% bovine serum albumin (BSA), the membrane was incubated with primary antibodies: anti-EAAT-1 (goat polyclonal antibody from Santa Cruz Inc., 1:500) overnight at 4° C.; anti-EAAT-2 (goat polyclonal antibody from Santa Cruz Inc., 1:500) overnight at 4° C.; or anti-actin (mouse monoclonal antibody from Sigma-Aldrich, 1:2000) for 1 hour at room temperature (RT). After washing, the secondary antibody, horseradish peroxidase linked IgG (anti-goat for EAAT-1 and EAAT-2, anti-mouse for actin), was applied at 1:2000 for one hour at RT. The bands were visualized using the enhanced chemiluminescence (ECL) system (Amersham Biosci.).
(§7) The results of the Western blot experiments were analyzed with Universal Hood Gel Documentation Systems and Quantity One V4.2.1 software (BIO-RAD).
(§8) Additional studies examined whether UA affects protein expression of EAAT-1 and EAAT-2. […]

[5] = system: spinal cord neurons co-cultured with astroglia; assay: Astroglia re-plated onto pure spinal cord neuron cultures, glutamate toxicity; assay type: cell-based, rat; details: glutamate 50 μM 1 hour, then 100 μM UA
Experimental: Spinal cord astroglial cultures were derived from postnatal day 1 rats using a modified approach from MaCarthy and de Vellis (McCarthy and deVellis 1980). Spinal cords were dissected and dissociated with trituration. Cells were plated in tissue culture flasks at density of 1000 cells/mm^2. Cultures were grown in NM-15 medium (84.4% MEM, 15% Fetal Bovine Serum, 0.6% glucose, supplemented with penicillin and streptomycin) for 9 days. Medium was changed every 3 days. The flasks were then shaken at 400×rpm for 20 minutes before the medium was changed and the floating cells (mostly microglia) were washed away. The flasks were again shaken overnight at 250×rpm to remove attached oligodendrocytes and remaining microglia. Following shaking, floating cells were washed away and medium was changed. Ara-C was added to final concentration of 10 μM to reduce the number of undifferentiated cells. Cultures were grown for 3 additional days before being trypsinized and re-plated at a density of 500 cells/mm^2 in SCM. These cultures only contain GFAP+ and vimentin+ astroglia. Staining for MAP-2 and CNPase were negative.
To determine the contribution of direct astroglial cell presence to the neuroprotective effects of UA, astroglial cultures were grown for 5 days in SCM before the cells were trypsinized and plated onto pure spinal cord neuron cultures grown for 5 days in vitro (DIV 5). […]

spinal cord neurons = assay: Neuron survival (MAP-2+ count) in mixed spinal cord cultures grown in SCM, glutamate toxicity; assay type: cell-based, rat; details: for glutamate-elicited neuronal cell death, dose dependence: various concentrations of glutamate
Experimental: Spinal cords were dissected from embryonic day 16 (E16) rat embryos. Meninges were removed, and the cords were dissociated with gentle trituration. Cells were plated at a density of 350 neurons/mm^2.
as §2, §3, §4
Glutamate is the major physiological agent that mediates cell death after spinal cord injury. To examine the survival of spinal cord neurons in an in vitro model of SCI, mixed cell cultures derived from embryonic 16 (E16) rat spinal cords were treated with a range of concentrations of glutamate. These cells were grown in serum-containing medium (SCM) for 6 days (DIV 6) before being treated with various concentrations of glutamate for 1 hour. The brief exposure to high levels of glutamate mimics its temporary up-regulation after SCI. After glutamate was removed, cells were kept in SCM for another 24 hours before the cultures were fixed and immunostained. The numbers of surviving neurons were monitored with immunohistochemical labeling of MAP-2, a marker for neurons.
To determine whether UA can be used to prevent glutamate toxicity, initial experiments monitored the effects of UA on spinal cord neuron survival during basal conditions. DIV 6 cultures were treated with different concentrations of UA for 24 hours before being fixed and immunostained, and the numbers of neurons were counted. […] The results were derived from 2 independent experiments (n=6).
Further experiments were designed to reveal if UA could reduce neuronal cell death after glutamate exposure. Cells were treated with 500 μM glutamate with or without various concentrations of UA. UA was applied with glutamate and the same concentration of UA was added after the removal of glutamate. […] With high concentrations of UA, glutamate-promoted neuronal cell death was abolished (FIG. 3B). The results were derived from 6 independent experiments (n=12).

EAAT-1 = assay: Western blot of EAAT-1 protein in mixed spinal cord cultures; assay type: cell-based, rat
Experimental: as §5, §6, §7, §8

For `O=c1[nH]c(=O)c2[nH]c(=O)[nH]c2[nH]1` [UA, uric acid], which secondary damage (spinal cord injury) is on record?
Its secondary damage is “reduced secondary damage”.

What about the peroxynitrite toxicity [1] of the same molecule?
Its peroxynitrite toxicity is “blocked peroxynitrite toxicity”.

What about the “toxicity elicited by Sin-1, UA added after Sin-1” value ([2]; UA 100 μM added after) of the same molecule?
Its value is “did not elicit a reversal of toxicity”.

And the “toxicity elicited by Sin-1, UA concurrently present” value ([2]; UA 100 μM concurrent)?
The value was “significantly reversed; also recorded: reduces damages elicited by Sin-1 treatment”.

What about the “carbon dioxide binding with peroxynitrite, times faster than UA” value [3] of the same molecule?
The value was 920 times.

What about the “effect of UA itself on neuron survival” value ([4]; UA 100 or 200 μM) of the same molecule?
The value was “no effect on neuron survival”.

What about the “protection against glutamate toxicity” value ([4]; UA 100 or 200 μM with and after glutamate (10 or 500 μM, 1 hour)) of the same molecule?
The value was “did not show any protection against glutamate toxicity; also recorded: did not alter the neuron loss; also recorded: did not protect spinal cord neurons against glutamate toxicity; also recorded: does not decrease glutamate toxicity”.

And the “EAAT-2 protein expression normalized to actin” value (EAAT-2)?
Its value is “not altered”.

What about the “toxic effects of glutamate in astroglia/neuron combined cultures” value [5] of the same molecule?
Its value is “blocked the toxic effects of glutamate; also recorded: reinstates the effects of UA in reducing glutamate toxicity”.

What about the “cell loss elicited by glutamate at 100 μM UA” value (spinal cord neurons; 100 μM UA, cultures grown in SCM) of the same molecule?
Its value is “reversed the cell loss”.

And the “effect on glutamate toxicity, UA added with and after glutamate” value (spinal cord neurons; 500 μM glutamate 1 hour, various concentrations of UA, mixed cultures)?
Its value is “blocked glutamate toxicity in a dose-dependent manner”.

And the “glutamate-promoted neuronal cell death at high concentrations of UA” value (spinal cord neurons; 500 μM glutamate, high concentrations of UA added with and after glutamate, mixed cultures)?
Its value is “abolished”.

What about the “effect on survival of spinal cord neurons during basal conditions” value (spinal cord neurons; UA different concentrations, 24 hours, DIV 6 mixed cultures, no glutamate) of the same molecule?
Its value is “no effect on the survival of spinal cord neurons; also recorded: does not affect survival of spinal cord neurons”.

And the “EAAT-1 protein expression normalized to actin” value (EAAT-1; UA 100 μM, 24 hours, mixed cultures DIV 6)?
The value was “upregulated”.

What about the “EAAT-1 protein expression, glutamate prior to UA” value (EAAT-1; glutamate 500 μM 1 hour, then UA 100 μM) of the same molecule?
Its value is “did not influence UA actions in increasing EAAT-1 protein expression”.

For `N[C@@H](CCC(=O)O)C(=O)O` [glutamate], which neuron loss ([4]; glutamate 10 μM) is on record?
The neuron loss was “more than 80%”.

And the neuron loss ([4]; glutamate 500 μM)?
The neuron loss was “essentially eliminated all neurons; also recorded: almost total neuron elimination”.

What about the “cell loss, dose dependence” value ([4]; glutamate 1 hour) of the same molecule?
Its value is “dose-dependent cell loss”.

What about the “neurons that did not survive” value (spinal cord neurons; glutamate 500 μM and 1 mM, 1 hour, mixed cultures, fixed 24 hours later) of the same molecule?
Its value is “approximately 40%”.

And the “glutamate-elicited neuronal cell death, dose dependence” value (spinal cord neurons; mixed cultures, 1 hour)?
Its value is “increased in a dose-dependent manner”.

What about the “glutamate-elicited neuronal cell death, dose dependence” value (spinal cord neurons; mixed cultures, 1 hour, listed as Glutamate) of the same molecule?
The value was “induces loss of spinal cord neurons in a dose-dependent manner”.
